Assay results from the supplement of paper PMC11061612.

Columns and labels:
Capivasertib = compound: C1CN(CCC1(C(=O)N[C@@H](CCO)C2=CC=C(C=C2)Cl)N)C3=NC=NC4=C3C=CN4 [Capivasertib]; details: max 10 µM
In short: (§1)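 Cancer cell lines were seeded into 1536-well plates in 7.5 μl medium (DMEM/F12 or RPMI, 10% FBS), held 24 hours at 37°C and 5% CO2, and dosed for 72 hours with final DMSO typically 0.2%. Luminescence from CellTiter-Glo 2.0, scaled between blank-well and DMSO-well means, served as viability. The single-agent IC50 was obtained from dose-response fits with a non-linear mixed effects model, each fit being a two-parameter logistic curve.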

AZD1775 = compound: C=CCn1c(=O)c2cnc(Nc3ccc(N4CCN(C)CC4)cc3)nc2n1-c1cccc(C(C)(C)O)n1 [AZD1775]; details: max 3 µM
In short: as §1

Trametinib = compound: CC(=O)Nc1cccc(-n2c(=O)n(C3CC3)c(=O)c3c(Nc4ccc(I)cc4F)n(C)c(=O)c(C)c32)c1 [Trametinib]; details: max 1 µM
In short: as §1

Palbociclib = compound: CC(=O)c1c(C)c2cnc(Nc3ccc(N4CCNCC4)cn3)nc2n(C2CCCC2)c1=O [Palbociclib]; details: max 10 µM
In short: as §1

AZD1390 = compound: CC(C)n1c(=O)n(C)c2cnc3cc(F)c(-c4ccc(OCCCN5CCCCC5)nc4)cc3c21 [AZD1390]; details: max 0.3 µM
In short: as §1

Venetoclax = compound: CC1(C)CCC(CN2CCN(c3ccc(C(=O)NS(=O)(=O)c4ccc(NCC5CCOCC5)c([N+](=O)[O-])c4)c(Oc4cnc5[nH]ccc5c4)c3)CC2)=C(c2ccc(Cl)cc2)C1 [Venetoclax]; details: max 1 µM
In short: as §1

Dasatinib = compound: CC1=C(C(=CC=C1)Cl)NC(=O)C2=CN=C(S2)NC3=CC(=NC(=N3)C)N4CCN(CC4)CCO [Dasatinib]; details: max 2 µM
In short: as §1

SG3199 = compound: CC1=CN2[C@@H](C1)C=NC3=CC(=C(C=C3C2=O)OC)OCCCCCOC4=C(C=C5C(=C4)N=C[C@@H]6CC(=CN6C5=O)C)OC [SG3199]; details: max 0.001 µM
In short: as §1

AZD2811 = compound: CCN(CCO)CCCOc1ccc2c(Nc3cc(CC(=O)Nc4cccc(F)c4)[nH]n3)ncnc2c1 [AZD2811]; details: max 1 µM
In short: as §1

SN-38 = compound: CCc1c2c(nc3ccc(O)cc13)-c1cc3c(c(=O)n1C2)COC(=O)[C@]3(O)CC [SN-38]; details: max 0.3 µM
In short: as §1

AZD0156 = compound: CN(C)CCCOc1ccc(-c2ccc3ncc4c(c3c2)n(C2CCOCC2)c(=O)n4C)cn1 [AZD0156]; details: max 3 µM
In short: as §1

AZD4320 = compound: CN(CC[C@H](CSC1=CC=CC=C1)NC2=C(C=C(C=C2)S(=O)(=O)NC(=O)C3=CC=C(C=C3)N4CCC(CC4)[C@H](C5=CC=CC=C5C6=CC=C(C=C6)Cl)O)S(=O)(=O)C(F)(F)F)CCO [AZD4320]; details: max 1 µM
In short: as §1

Alisertib = compound: COc1cc(Nc2ncc3c(n2)-c2ccc(Cl)cc2C(c2c(F)cccc2OC)=NC3)ccc1C(=O)O [Alisertib]; details: max 10 µM
In short: as §1

Gefitinib = compound: COc1cc2ncnc(Nc3ccc(F)c(Cl)c3)c2cc1OCCCN1CCOCC1 [Gefitinib]; details: max 10 µM
In short: as §1

Prexasertib = compound: COc1cccc(OCCCN)c1-c1cc(Nc2cnc(C#N)cn2)n[nH]1 [Prexasertib]; details: max 1 µM
In short: as §1

Doxorubicin = compound: COc1cccc2c1C(=O)c1c(O)c3c(c(O)c1C2=O)C[C@@](O)(C(=O)CO)C[C@@H]3O[C@H]1C[C@H](N)[C@H](O)[C@H](C)O1 [Doxorubicin]; details: max 1 µM
In short: as §1

AZD5153 = compound: COc1nnc2ccc(N3CCC(c4ccc(OCCN5CCN(C)C(=O)[C@H]5C)cc4)CC3)nn12 [AZD5153]; details: max 1 µM
In short: as §1

Lapatinib = compound: CS(=O)(=O)CCNCc1ccc(-c2ccc3ncnc(Nc4ccc(OCc5cccc(F)c5)c(Cl)c4)c3c2)o1 [Lapatinib]; details: max 10 µM
In short: as §1

AZD8186 = compound: C[C@@H](Nc1cc(F)cc(F)c1)c1cc(C(=O)N(C)C)cc2c(=O)cc(N3CCOCC3)oc12 [AZD8186]; details: max 3 µM
In short: as §1

Crizotinib = compound: C[C@@H](Oc1cc(-c2cnn(C3CCNCC3)c2)cnc1N)c1c(Cl)ccc(F)c1Cl [Crizotinib]; details: max 10 µM
In short: as §1

Savolitinib = compound: C[C@@H](c1ccc2nccn2c1)n1nnc2ncc(-c3cnn(C)c3)nc21 [Savolitinib]; details: max 1 µM
In short: as §1

AZD6738 = compound: C[C@@H]1COCCN1C2=NC(=NC(=C2)C3(CC3)[S@](=N)(=O)C)C4=C5C=CNC5=NC=C4 [AZD6738]; details: max 10 µM
In short: as §1

AZD5991 = compound: Cc1c2c(nn1C)CSCc1cc(n(C)n1)CSc1cc(c3ccccc3c1)OCCCc1c(C(=O)O)n(C)c3c-2c(Cl)ccc13 [AZD5991]; details: max 1 µM
In short: as §1

AZD7648 = compound: Cc1cc2ncnn2cc1Nc1ncc2c(n1)n(C1CCOCC1)c(=O)n2C [AZD7648]; details: max 10 µM
In short: as §1

Taselisib = compound: Cc1nc(-c2cn3c(n2)-c2ccc(-c4cnn(C(C)(C)C(N)=O)c4)cc2OCC3)n(C(C)C)n1 [Taselisib]; details: max 10 µM
In short: as §1

Selumetinib = compound: Cn1cnc2c(F)c(Nc3ccc(Br)cc3Cl)c(C(=O)NOCCO)cc21 [Selumetinib]; details: max 10 µM
In short: as §1

MK-2206 = compound: NC1(c2ccc(-c3nc4ccn5c(=O)[nH]nc5c4cc3-c3ccccc3)cc2)CCC1 [MK-2206]; details: max 10 µM
In short: as §1

Olaparib = compound: O=C(c1cc(Cc2n[nH]c(=O)c3ccccc23)ccc1F)N1CCN(C(=O)C2CC2)CC1 [Olaparib]; details: max 10 µM
In short: as §1

Cell Line | IC50, cell viability 72 h (Capivasertib) [µM] | IC50, cell viability 72 h (AZD1775) [µM] | IC50, cell viability 72 h (Trametinib) [µM] | IC50, cell viability 72 h (Palbociclib) [µM] | IC50, cell viability 72 h (AZD1390) [µM] | IC50, cell viability 72 h (Venetoclax) [µM] | IC50, cell viability 72 h (Dasatinib) [µM] | IC50, cell viability 72 h (SG3199) [µM] | IC50, cell viability 72 h (AZD2811) [µM] | IC50, cell viability 72 h (SN-38) [µM] | IC50, cell viability 72 h (AZD0156) [µM] | IC50, cell viability 72 h (AZD4320) [µM] | IC50, cell viability 72 h (Alisertib) [µM] | IC50, cell viability 72 h (Gefitinib) [µM] | IC50, cell viability 72 h (Prexasertib) [µM] | IC50, cell viability 72 h (Doxorubicin) [µM] | IC50, cell viability 72 h (AZD5153) [µM] | IC50, cell viability 72 h (Lapatinib) [µM] | IC50, cell viability 72 h (AZD8186) [µM] | IC50, cell viability 72 h (Crizotinib) [µM] | IC50, cell viability 72 h (Savolitinib) [µM] | IC50, cell viability 72 h (AZD6738) [µM] | IC50, cell viability 72 h (AZD5991) [µM] | IC50, cell viability 72 h (AZD7648) [µM] | IC50, cell viability 72 h (Taselisib) [µM] | IC50, cell viability 72 h (Selumetinib) [µM] | IC50, cell viability 72 h (MK-2206) [µM] | IC50, cell viability 72 h (Olaparib) [µM]
PA-TU-8902 (Pancreatic Carcinoma) | > 10 | > 3 | > 1 | > 10 | > 0.3 | > 1 | > 2 | > 0.001 | > 1 | > 0.3 | > 3 | > 1 | > 10 | > 10 | 0.693 | > 1 | > 1 | > 10 | > 3 | > 10 | > 1 | > 10 | > 1 | > 10 | 3.55 | > 10 | > 10 | > 10
SKN-3 (Head and Neck Carcinoma) | > 10 | 1.53 | > 1 | > 10 | > 0.3 | > 1 | > 2 | > 0.001 | > 1 | 0.251 | > 3 | > 1 | > 10 | > 10 | 0.38 | > 1 | > 1 | > 10 | > 3 | > 10 | > 1 | > 10 | > 1 | > 10 | 9.18 | > 10 | > 10 | > 10
TYK-nu (Ovarian Carcinoma) | > 10 | 0.763 | 0.301 | > 10 | > 0.3 | > 1 | > 2 | > 0.001 | > 1 | 0.0108 | > 3 | > 1 | > 10 | > 10 | 0.0572 | > 1 | 0.28 | > 10 | > 3 | > 10 | > 1 | 5.37 | > 1 | > 10 | > 10 | 4.36 | > 10 | > 10
